Tested on: AMPK
Assay: AMPK enzyme activity assay (Delfia technology, AMARA peptide substrate)
Assay type: biochemical
Settings: compound at 30 μM vs AMP at 200 μM
Experimental: The following biological test allows the determination of the efficacy of compounds of formula (1) onto AMPK protein.
AMPK enzyme activities were assayed by using a Delfia technology. AMPK enzyme activities were carried out in microtiter plates in the presence of a synthetic peptide substrate (AMARAASAAALARRR, the “AMARA” peptide) and activators in serial dilutions. Reactions were initiated by the addition of AMPK. Enzyme activity was assayed by using an anti-phosphoserine antibody to measure the quantity of phosphate incorporated into the AMARAA.
No: Number of the molecule
Activity: Ratio between the % of control (basal activity) of compound of formula (1) at 30 μM and the % of control (basal activity) of AMP (natural substrate) at 200 μM.

| Compound | Activity: Ratio between the % of control (basal activity) of compound of formula (1) at 30 μM and the % of control (basal activity) of AMP (natural substrate) at 200 μM | Activity: Ratio between the % of control (basal activity) of compound of formula (1) at 30 μM and the % of control (basal activity) of AMP (natural substrate) at 200 μM (listed as 2) |
| --- | --- | --- |
| Cc1ccc(-c2c(Cl)sc3c2C(=O)C(C)(c2ccccc2)C(=O)N3)cc1 (stereo not shown) [No 34, 2-chloro-5-methyl-5-phenyl-3-(p-tolyl)-7H-thieno[2,3-b]pyridine-4,6-dione] | A (0%<A<50%) |  |
| COc1ccc(C2(C)C(=O)Nc3sc(Cl)c(-c4ccccc4)c3C2=O)cc1 (stereo not shown) [No 35, 2-chloro-5-(4-methoxyphenyl)-5-methyl-3-phenyl-7H-thieno[2,3-b]pyridine-4,6-dione] | A (0%<A<50%) |  |
| COc1ccc(-c2c(Cl)sc3c2C(=O)C(C)(c2ccccc2)C(=O)N3)cc1 (stereo not shown) [No 36, 2-chloro-3-(4-methoxyphenyl)-5-methyl-5-phenyl-7H-thieno[2,3-b]pyridine-4,6-dione] | A (0%<A<50%) |  |
| CC1(c2ccc(F)cc2)C(=O)Nc2sc(Cl)c(-c3cccc(F)c3)c2C1=O (stereo not shown) [No 37, 2-chloro-3-(3-fluorophenyl)-5-(4-fluorophenyl)-5-methyl-7H-thieno[2,3-b]pyridine-4,6-dione] | A (0%<A<50%) |  |
| COc1cccc(C2(C)C(=O)Nc3sc(Cl)c(-c4ccccc4)c3C2=O)c1 (stereo not shown) [No 38, 2-chloro-5-(3-methoxyphenyl)-5-methyl-3-phenyl-7H-thieno[2,3-b]pyridine-4,6-dione] | A (0%<A<50%) |  |
| COc1ccc(-c2c(Cl)sc3c2C(=O)C(C)(c2ccc(F)cc2)C(=O)N3)cc1 (stereo not shown) [No 39, 2-chloro-5-(4-fluorophenyl)-3-(4-methoxyphenyl)-5-methyl-7H-thieno[2,3-b]pyridine-4,6-dione] | A (0%<A<50%) |  |
| COc1cccc(-c2c(Cl)sc3c2C(=O)C(C)(c2ccccc2)C(=O)N3)c1 (stereo not shown) [No 40, 2-chloro-3-(3-methoxyphenyl)-5-methyl-5-phenyl-7H-thieno[2,3-b]pyridine-4,6-dione] | A (0%<A<50%) |  |
| COc1cccc(-c2c(Cl)sc3c2C(=O)C(C)(c2ccc(C)cc2)C(=O)N3)c1 (stereo not shown) [No 41, 2-chloro-3-(3-methoxyphenyl)-5-methyl-5-(p-tolyl)-7H-thieno[2,3-b]pyridine-4,6-dione] | A (0%<A<50%) |  |
| COc1cccc(-c2c(Cl)sc3c2C(=O)C(C)(c2ccc(F)cc2)C(=O)N3)c1 (stereo not shown) [No 42, 2-chloro-5-(4-fluorophenyl)-3-(3-methoxyphenyl)-5-methyl-7H-thieno[2,3-b]pyridine-4,6-dione] | A (0%<A<50%) |  |
| COc1ccc(C2(C)C(=O)Nc3sc(Cl)c(-c4cccc(OC)c4)c3C2=O)cc1 (stereo not shown) [No 43, 2-chloro-3-(3-methoxyphenyl)-5-(4-methoxyphenyl)-5-methyl-7H-thieno[2,3-b]pyridine-4,6-dione] | A (0%<A<50%) |  |
| COc1cccc(-c2c(Cl)sc3c2C(=O)C(C)(c2cccc(C)c2)C(=O)N3)c1 (stereo not shown) [No 44, 2-chloro-3-(3-methoxyphenyl)-5-methyl-5-(m-tolyl)-7H-thieno[2,3-b]pyridine-4,6-dione] | A (0%<A<50%) |  |
| Cc1ccc(-c2c(Cl)sc3c2C(=O)C(C)(c2cccc(F)c2)C(=O)N3)cc1 (stereo not shown) [No 45, 2-chloro-5-(3-fluorophenyl)-5-methyl-3-(p-tolyl)-7H-thieno[2,3-b]pyridine-4,6-dione] | A (0%<A<50%) |  |
| O=C1Nc2sc(Cl)c(-c3ccc(F)cc3O)c2C(=O)C1(F)c1ccccc1 (stereo not shown) [No 46, 2-chloro-5-fluoro-3-(4-fluoro-2-hydroxy-phenyl)-5-phenyl-7H-thieno[2,3-b]pyridine-4,6-dione] | B (50%≦B<75%) |  |
| Cc1ccccc1-c1c(Cl)sc2c1C(=O)C(C)(c1ccccc1F)C(=O)N2 (stereo not shown) [No 47, 2-chloro-5-(2-fluorophenyl)-5-methyl-3-(o-tolyl)-7H-thieno[2,3-b]pyridine-4,6-dione] | A (0%<A<50%) |  |
| COC1(c2ccccc2)C(=O)Nc2sc(Cl)c(-c3ccccc3)c2C1=O (stereo not shown) [No 48, 2-chloro-5-methoxy-3,5-diphenyl-7H-thieno[2,3-b]pyridine-4,6-dione] | A (0%<A<50%) | B (50%≦B<75%) |
| CC1(c2ccc(F)cc2)C(=O)Nc2sc(Cl)c(-c3ccc(F)cc3)c2C1=O (stereo not shown) [No 49, 2-chloro-3,5-bis(4-fluorophenyl)-5-methyl-7H-thieno[2,3-b]pyridine-4,6-dione] | A (0%<A<50%) |  |
| Cc1ccc(C2(C)C(=O)Nc3sc(Cl)c(-c4ccc(F)cc4)c3C2=O)cc1 (stereo not shown) [No 50, 2-chloro-3-(4-fluorophenyl)-5-methyl-5-(p-tolyl)-7H-thieno[2,3-b]pyridine-4,6-dione] | A (0%<A<50%) |  |
| CC1(c2cccc(F)c2)C(=O)Nc2sc(Cl)c(-c3ccc(F)cc3)c2C1=O (stereo not shown) [No 51, 2-chloro-5-(3-fluorophenyl)-3-(4-fluorophenyl)-5-methyl-7H-thieno[2,3-b]pyridine-4,6-dione] | A (0%<A<50%) |  |
| COc1ccccc1-c1c(Cl)sc2c1C(=O)C(C)(c1ccc(F)cc1)C(=O)N2 (stereo not shown) [No 52, 2-chloro-5-(4-fluorophenyl)-3-(2-methoxyphenyl)-5-methyl-7H-thieno[2,3-b]pyridine-4,6-dione] | A (0%<A<50%) |  |
| COc1ccc(C2(C)C(=O)Nc3sc(Cl)c(-c4ccc(F)cc4)c3C2=O)cc1 (stereo not shown) [No 53, 2-chloro-3-(4-fluorophenyl)-5-(4-methoxyphenyl)-5-methyl-7H-thieno[2,3-b]pyridine-4,6-dione] | A (0%<A<50%) |  |
| CC1(c2ccc(S(C)(=O)=O)cc2)C(=O)Nc2sc(Cl)c(-c3ccc(F)cc3)c2C1=O (stereo not shown) [No 54, 2-chloro-3-(4-fluorophenyl)-5-methyl-5-(4-methyl-sulfonylphenyl)-7H-thieno[2,3-b]pyridine-4,6-dione] | A (0%<A<50%) |  |
| CC1(c2ccccc2F)C(=O)Nc2sc(Cl)c(-c3ccc(F)cc3)c2C1=O (stereo not shown) [No 55, 2-chloro-5-(2-fluorophenyl)-3-(4-fluorophenyl)-5-methyl-7H-thieno[2,3-b]pyridine-4,6-dione] | B (50%≦B<75%) |  |
| COc1ccccc1-c1c(Cl)sc2c1C(=O)C(C)(c1cccc(C)c1)C(=O)N2 (stereo not shown) [No 56, 2-chloro-3-(2-methoxyphenyl)-5-methyl-5-(m-tolyl)-7H-thieno[2,3-b]pyridine-4,6-dione] | A (0%<A<50%) |  |
| Cc1ccc(-c2c(Cl)sc3c2C(=O)C(C)(c2ccc(F)cc2)C(=O)N3)cc1 (stereo not shown) [No 57, 2-chloro-5-(4-fluorophenyl)-5-methyl-3-(p-tolyl)-7H-thieno[2,3-b]pyridine-4,6-dione] | B (50%≦B<75%) |  |
| COc1cccc(C2(C)C(=O)Nc3sc(Cl)c(-c4ccccc4C)c3C2=O)c1 (stereo not shown) [No 58, 2-chloro-5-(3-methoxyphenyl)-5-methyl-3-(o-tolyl)-7H-thieno[2,3-b]pyridine-4,6-dione] | C (C≧75%) |  |
| Cc1cccc(C2(C)C(=O)Nc3sc(Cl)c(-c4ccccc4C)c3C2=O)c1 (stereo not shown) [No 59, 2-chloro-5-methyl-5-(m-tolyl)-3-(o-tolyl)-7H-thieno[2,3-b]pyridine-4,6-dione] | C (C≧75%) |  |
| Cc1ccc(C2(C)C(=O)Nc3sc(Cl)c(-c4cccc(F)c4)c3C2=O)cc1 (stereo not shown) [No 60, 2-chloro-3-(3-fluorophenyl)-5-methyl-5-(p-tolyl)-7H-thieno[2,3-b]pyridine-4,6-dione] | C (C≧75%) |  |
| COc1cccc(-c2c(Cl)sc3c2C(=O)C(C)(c2cccc(OC)c2)C(=O)N3)c1 (stereo not shown) [No 61, 2-chloro-3,5-bis(3-methoxyphenyl)-5-methyl-7H-thieno[2,3-b]pyridine-4,6-dione] | C (C≧75%) |  |
| COc1cccc(-c2c(Cl)sc3c2C(=O)C(C)(c2cccc(F)c2)C(=O)N3)c1 (stereo not shown) [No 62, 2-chloro-5-(3-fluorophenyl)-3-(3-methoxyphenyl)-5-methyl-7H-thieno[2,3-b]pyridine-4,6-dione] | C (C≧75%) |  |
| COc1cccc(C2(C)C(=O)Nc3sc(Cl)c(-c4ccc(F)cc4)c3C2=O)c1 (stereo not shown) [No 63, 2-chloro-3-(4-fluorophenyl)-5-(3-methoxyphenyl)-5-methyl-7H-thieno[2,3-b]pyridine-4,6-dione] | C (C≧75%) |  |

— patent US9365584B2, “Thieno [2,3-B] pyridinedione activators of AMPK and therapeutic uses thereof” (Poxel, priority 2009, dated 2016)
